Experimental data from PMC9081329, “Pharmacokinetics, Mass Balance, Excretion, and Tissue Distribution of Plasmalogen Precursor PPI-1011” (Frontiers in Cell and Developmental Biology, 2022).

Assay: Repeat dose tissue distribution study (QWBA, LSC of blood and plasma), 15 daily doses
Type: in vivo, Sprague-Dawley rats
Description: Three male rats were administered [^14C]PPI-1011 at 100 mg/kg (100 μCi/kg) once daily for 15 days. One rat was sacrificed at each of the following time points after the administration of the day 15 dose: 24, 48, and 96 h. Terminal blood was collected by cardiac puncture directly into tubes with K2EDTA, an aliquot was stored at 4°C until LSC was performed for radioactivity, while the remaining blood was processed to plasma and stored at −20°C until LSC. Following blood collection, the carcasses were frozen in a cold bath with hexanes and dry ice for at least 8 min and then dried and stored at −70°C for at least 12 h. The carcasses were transferred to a −20°C freezer for at least 12 h before embedding.
QWBA was used to determine radioactivity concentrations in the caecum (contents and mucosa), large intestine (contents and mucosa), small intestine (contents and mucosa), stomach (contents and mucosa), brain, choroid plexus, spinal cord, bone, skin, adrenal gland, pineal body, pituitary gland, thyroid gland, liver, kidney (cortex, medulla and whole kidney), urinary bladder (contents and wall), brown fat, white fat, eye (lens, uveal tract and whole eye), epididymis, prostate gland, testis, ovary, uterus, lung, exorbital lachrymal gland, Harderian gland, pancreas, salivary gland, skeletal muscle, myocardium, cardiac blood, bone marrow, lymph node, spleen, and thymus. As well, LSC was used to determine the total radioactivity in the whole blood and plasma.
The whole-body cryosectioning technique described by ([Ullberg, 1977]) was the basis for embedding and cryosectioning the rats assigned to this study. Each frozen carcass was shaved, and then the limbs and tail were removed prior to embedding. Chilled (4°C) 3% CMC (low viscosity) was utilized to provide a firm support of reinforced ice around each rat and for a secure attachment to the microtome stage. Upon thorough freezing of the embedding medium surrounding each rat, the frozen CMC block was removed from the freezing bath and four 3/8 inch holes were drilled into the block. One cryosection quality control standard (CQCS) was prepared with a known amount of radioactivity and at least 1 ml aliquots were added to each of the four drilled holes. CQCS data were utilized to evaluate the overall performance of the QWBA assay.
Each frozen rat was sagittally trimmed (50–100 μm) at −20°C until exposure of a few target tissues employing a Leica Cryomacrocut heavy-duty microtome (Leica Microsystems Inc.,). Disposable stainless steel Feather type H45L knives (Feather Safety Razor Co., Ltd.) were utilized for trimming and sectioning each frozen rat. Several thinner sections (50 μm) were discarded prior to obtaining multiple 50 μm sections at various cryosectioning levels for QWBA analysis. Upon the collection of at least 60 target tissues in multiple cryosectioning levels, the cryosections were kept in the Cryomacrocut cryochamber for a minimum of 18 h for dehydration depending upon the number of cryosections within the cryochamber. After dehydration was complete, the cryosections were transferred to ambient temperature for processing. Mounted whole-body cryosections and a set of 15 standards were sandwiched between a standard phosphor screen and an exposure cassette. All cryosections were exposed to the phosphor screen for 4-days in a cabinet protected with lead prior to scanning using a Typhoon PhosphorImager (Cytiva). MCID™ Analysis software (InterFocus Ltd.) was utilized to generate a calibration curve of the STD nominal concentrations (nCi/g) versus PhosphorImager response (counts/μm^2 minus background) by weighted (1/x) linear regression analysis ([Potchoiba et al., 1995]; [Potchoiba et al., 1998]). The linear regression curve was then utilized to determine the concentration (nCi/g) of total radioactivity in whole-body tissues and blood. Radioactivity concentrations were expressed as μg Eq/g based on the specific activity of the compound in the final dose formulations. […]

[1] = 48 hr post 15 daily oral 100 mg/kg
[2] = 96 hr post 15 daily oral 100 mg/kg

CC/C=C\C/C=C\C/C=C\C/C=C\C/C=C\C/C=C\CCC(=O)O[C@H](CO[14CH2]CCCCCCCCCCCCCCC)COC(=O)CCCCC1CCSS1 (some centres unmarked) [[^14C]PPI-1011]
Radioactivity concentration, Colliculus [1]: 68.0 μg equivalents/g | Radioactivity concentration, Diaphragm [1]: 172 μg equivalents/g | Radioactivity concentration, Esophagus [1]: 94.8 μg equivalents/g | Radioactivity concentration, Exorbital Lacrimal Gland [1]: 82.5 μg equivalents/g | Radioactivity concentration, Gastric Mucosa [1]: 307 μg equivalents/g | Radioactivity concentration, Harderian Gland [1]: 69.6 μg equivalents/g | Radioactivity concentration, Intra-Orbital Lacrimal Gland [1]: 84.5 μg equivalents/g | Radioactivity concentration, Kidney [1]: 221 μg equivalents/g | Radioactivity concentration, Large Intestines [1]: 122 μg equivalents/g | Radioactivity concentration, Liver [1]: 186 μg equivalents/g | Radioactivity concentration, Lung [1]: 181 μg equivalents/g | Radioactivity concentration, Lymph Node [1]: 165 μg equivalents/g | Radioactivity concentration, Medulla Oblongata [1]: 48.4 μg equivalents/g | Radioactivity concentration, Muscle [1]: 95.4 μg equivalents/g | Radioactivity concentration, Myocardium [1]: 222 μg equivalents/g | Radioactivity concentration, Nasal Turbinates [1]: 184 μg equivalents/g | Radioactivity concentration, Ocular - Lens [1]: 5.05 μg equivalents/g | Radioactivity concentration, Ocular - Uveal Tract [1]: 59.6 μg equivalents/g | Radioactivity concentration, Ocular - Vitreous Body [1]: 2.01 μg equivalents/g | Radioactivity concentration, Ocular - Whole Eye [1]: 15.8 μg equivalents/g | Radioactivity concentration, Olfactory Bulb [1]: 35.0 μg equivalents/g | Radioactivity concentration, Pancreas [1]: 312 μg equivalents/g | Radioactivity concentration, Parotid Gland [1]: 257 μg equivalents/g | Radioactivity concentration, Pineal Gland [1]: 156 μg equivalents/g | Radioactivity concentration, Pituitary Gland [1]: 226 μg equivalents/g | Radioactivity concentration, Prostate [1]: 72.1 μg equivalents/g | Radioactivity concentration, Renal Cortex [1]: 244 μg equivalents/g | Radioactivity concentration, Renal Medulla [1]: 183 μg equivalents/g | Radioactivity concentration, Salivary Gland [1]: 271 μg equivalents/g | Radioactivity concentration, Seminal Vesicles [1]: 60.7 μg equivalents/g | Radioactivity concentration, Skin - Non-Pigmented [1]: 101 μg equivalents/g | Radioactivity concentration, Small Intestines [1]: 164 μg equivalents/g | Radioactivity concentration, Spinal Cord [1]: 51.2 μg equivalents/g | Radioactivity concentration, Spleen [1]: 209 μg equivalents/g | Radioactivity concentration, Stomach [1]: 78.9 μg equivalents/g | Radioactivity concentration, Testis [1]: 47.2 μg equivalents/g | Radioactivity concentration, Thalamus [1]: 42.3 μg equivalents/g | Radioactivity concentration, Thymus [1]: 131 μg equivalents/g | Radioactivity concentration, Thyroid [1]: 297 μg equivalents/g | Radioactivity concentration, Whole Brain [1]: 43.7 μg equivalents/g | Radioactivity concentration, Adipose - Brown [2]: 1301 μg equivalents/g | Radioactivity concentration, Adipose - Brown (Vessel Wall) [2]: 1249 μg equivalents/g | Radioactivity concentration, Adipose - Subcutaneous [2]: 1373 μg equivalents/g | Radioactivity concentration, Adipose - Visceral [2]: 1265 μg equivalents/g | Radioactivity concentration, Adrenal Gland [2]: 1636 μg equivalents/g | Radioactivity concentration, Bladder Wall [2]: 101 μg equivalents/g | Radioactivity concentration, Blood - QWBA [2]: 29.5 μg equivalents/g | Radioactivity concentration, Bone Marrow [2]: 77.3 μg equivalents/g | Radioactivity concentration, Bone Surface [2]: 10.5 μg equivalents/g | Radioactivity concentration, Cerebellum [2]: 55.8 μg equivalents/g | Radioactivity concentration, Cerebrum [2]: 47.5 μg equivalents/g | Radioactivity concentration, Choroid Plexus [2]: 121 μg equivalents/g | Radioactivity concentration, Colliculus [2]: 67.3 μg equivalents/g | Radioactivity concentration, Diaphragm [2]: 125 μg equivalents/g | Radioactivity concentration, Esophagus [2]: 87.1 μg equivalents/g | Radioactivity concentration, Exorbital Lacrimal Gland [2]: 71.0 μg equivalents/g | Radioactivity concentration, Gastric Mucosa [2]: 210 μg equivalents/g | Radioactivity concentration, Harderian Gland [2]: 47.9 μg equivalents/g | Radioactivity concentration, Intra-Orbital Lacrimal Gland [2]: 76.5 μg equivalents/g | Radioactivity concentration, Kidney [2]: 238 μg equivalents/g | Radioactivity concentration, Large Intestines [2]: 94.3 μg equivalents/g | Radioactivity concentration, Liver [2]: 129 μg equivalents/g | Radioactivity concentration, Lung [2]: 191 μg equivalents/g | Radioactivity concentration, Lymph Node [2]: 127 μg equivalents/g | Radioactivity concentration, Medulla Oblongata [2]: 51.8 μg equivalents/g | Radioactivity concentration, Muscle [2]: 97.9 μg equivalents/g | Radioactivity concentration, Myocardium [2]: 172 μg equivalents/g | Radioactivity concentration, Nasal Turbinates [2]: 80.2 μg equivalents/g | Radioactivity concentration, Ocular - Lens [2]: 6.92 μg equivalents/g | Radioactivity concentration, Ocular - Uveal Tract [2]: 68.9 μg equivalents/g | Radioactivity concentration, Ocular - Vitreous Body [2]: 2.06 μg equivalents/g | Radioactivity concentration, Ocular - Whole Eye [2]: 18.2 μg equivalents/g | Radioactivity concentration, Olfactory Bulb [2]: 42.2 μg equivalents/g | Radioactivity concentration, Pancreas [2]: 333 μg equivalents/g | Radioactivity concentration, Parotid Gland [2]: 220 μg equivalents/g | Radioactivity concentration, Pineal Gland [2]: 179 μg equivalents/g | Radioactivity concentration, Pituitary Gland [2]: 191 μg equivalents/g | Radioactivity concentration, Prostate [2]: 84.8 μg equivalents/g | Radioactivity concentration, Renal Cortex [2]: 250 μg equivalents/g | Radioactivity concentration, Renal Medulla [2]: 186 μg equivalents/g | Radioactivity concentration, Salivary Gland [2]: 227 μg equivalents/g | Radioactivity concentration, Seminal Vesicles [2]: 54.7 μg equivalents/g | Radioactivity concentration, Skin - Non-Pigmented [2]: 129 μg equivalents/g | Radioactivity concentration, Small Intestines [2]: 112 μg equivalents/g | Radioactivity concentration, Spinal Cord [2]: 53.0 μg equivalents/g | Radioactivity concentration, Spleen [2]: 147 μg equivalents/g | Radioactivity concentration, Stomach [2]: 109 μg equivalents/g | Radioactivity concentration, Testis [2]: 43.3 μg equivalents/g | Radioactivity concentration, Thalamus [2]: 45.4 μg equivalents/g | Radioactivity concentration, Thymus [2]: 107 μg equivalents/g | Radioactivity concentration, Thyroid [2]: 259 μg equivalents/g | Radioactivity concentration, Whole Brain [2]: 47.3 μg equivalents/g | Decline of radioactivity from peak concentration, subcutaneous adipose (by 96 HPD, 15 daily doses): ~1.1 fold | Decline of radioactivity from peak concentration, visceral adipose (by 96 HPD, 15 daily doses): ~1.2 fold | Uptake in the brain following 15 doses versus single dose, on average (rat, in vivo): 16-18 times
